“Also recorded” adds a separate entry of the source.

Data on one compound can be found in patent US20240158418A1 (C4 Therapeutics, Inc., priority 2021, published 2024).

In experiment [1] the test system is NCI-H1975 L858R-T790M NSCLC xenograft tumors. Kind of experiment: NCI-H1975 NSCLC xenograft efficacy. The experiment is classed as in vivo, female BALB/c nude mice. How it is done:
For the NCI-H1975 cells, the xenograft study was conducted in female BALB/c nude mice bearing NCI-H1975 NSCLC tumors. Female nude mice were inoculated subcutaneously in the right flank with 5×10^6 tumors cells in 0.1 mL of PBS. Tumor volume was measured twice weekly in two dimensions using calipers, and volume (mm^3) was calculated using the formula: V=0.5 a×b^2 where a and b are the long and short diameters of the tumor in mm, respectively.
Body weight and MTV were measured on a 2× weekly schedule. Statistical analysis was performed using a one-way ANOVA. Data are expressed as MTV±SEM.

Experiment [2] has as its target T1, Sal-like protein 4 (SALL4) (Homo sapiens, UniProt Q9UJQ4).
T1 construct: Endogenous expression of SALL4 in KELLY cells was determined by addition of C-terminal HiBiT tag; host or cells: KELLY (CRISPR-Cas9 HiBiT knock-in)
As to the kind of experiment: SALL4 degradation, HiBiT-tagged SALL4 in KELLY cells. The experiment is classed as cell-based. Conditions: 6 hours, up to 10 μM. How it is done: Specific studies were carried out to assess the ability of Compound 1 to degrade Sal-like protein 4 (SALL4), a protein implicated in the teratogenicity induced by the IMiD®s class of IKZF1/IKZF3 degraders including lenalidomide (Matyskiela et al., Crystal structure of the SALL4-pomalidomide-cereblon-DDB1 complex, Nature Structural and Molecular Biology, (2020) 27, 319-322). Endogenous expression of SALL4 in KELLY cells was determined by addition of C-terminal HiBiT tag to the KELLY cell line (DSMZ ACC355) using CRISPR-Cas9. Briefly, test compound was added to 384-well plates at a top concentration of 1 μM with 11 points, half log titration in duplicates. KELLY cells expressing HiBiT-tagged SALL4 were seeded into the 384-well plates in RPMI medium containing 10% FBS and 2 mM pyruvate at a cell density of 6000 cells per well. Cells treated in the absence of the test compound were the negative control and wells containing media only were the positive control. Following compound treatment, cells were incubated at 37° C. with 5% CO2 for 6 hr. HiBiT signal was determined using Nano-Glo™ HiBiT Lytic Assay System (Promega, N3050) and luminescence was acquired on EnVision™ Multilabel Reader (PerkinElmer, Santa Clara, CA, USA). % SALL4 remaining was determined by normalizing the signal with positive and negative controls on the same microtiter plate. Data in FIG. 7 are expressed as the mean±SD. […]
Background: With HiBiT, luminescence reflects the tagged protein that the partner subunit can reach.

The next experiment deals with EGFR L858R (Homo sapiens, UniProt P00533, L858R). Kind of experiment: KINOMEscan scanMAX, EGFR-L858R. It counts as binding. More on the design: purchased Eurofins DiscoverX KINOMEscan scanMAX; host or cells: E. coli BL21-derived (T7 phage) or HEK-293. Conditions: 100 nM. How it is done:
Kinome-wide binding selectivity of CFT8919 was assessed via the KINOMEscan scanMAX assay at Eurofins DiscoverX (Freemont, CA, USA). Compound was tested at 100 nM against a diverse panel of 468 kinases. The size of circles was mapped onto the kinase phylogenetic tree utilizing DiscoverX TREEspot using <50% of % control as a cutoff.
For most assays, kinase-tagged T7 phage strains were grown in parallel in 24-well blocks in an E. coli host derived from the BL21 strain. E. coli were grown to log-phase and infected with T7 phage from a frozen stock (multiplicity of infection=0.4) and incubated with shaking at 32° C. until lysis (90-150 minutes). The lysates were centrifuged (6,000×g) and filtered (0.2 μm) to remove cell debris. The remaining kinases were produced in HEK-293 cells and subsequently tagged with DNA for qPCR detection. Streptavidin-coated magnetic beads were treated with biotinylated small molecule ligands for 30 minutes at room temperature to generate affinity resins for kinase assays. The liganded beads were blocked with excess biotin and washed with blocking buffer (SeaBlock (Pierce), 1% BSA, 0.05% Tween 20, 1 mM DTT) to remove unbound ligand and to reduce non-specific phage binding. […] Test compounds were prepared as 40× stocks in 100% DMSO and directly diluted into the assay. […] The kinase concentration in the eluates was measured by qPCR.

The test system of experiment [3] is intracranial NCI-H1975-luciferase expressing NSCLC tumors. Kind of experiment: NCI-H1975-luc intracranial tumor model (intracranial injection into forebrain). The experiment is classed as in vivo, female BALB/c nude mice. Conditions: 100 mg/kg/day PO BID. How it is done: Compound 1 efficacy in a NCI-H1975-luciferase expressing intracranial tumor model established by injecting tumor cells intracranially into the mouse forebrain was evaluated at […]: 100 mg/kg/day. Compound 1 was administered BID (twice a day) orally (PO). Eight mice were used per group.
2×10^5 luciferase-expressing NCI-H1975-luc tumor cells suspended in 2 μL RPMI-1640 media were injected into the right forebrain of female BALB/c nude mice. Tumor growth was monitored using imaging analysis. Mice were injected intraperitoneally with 15 mg/mL of D-luciferin and anesthetized with 1-2% isoflurane inhalation. 10 minutes post luciferin injection, mice were imaged using IVIS Lumina III (Perkin Elmer) and total bioluminescence signal (BLI, photons/s) was measured in a region of interest (ROI). BLI from ROI were quantified and used as an indicator of tumor burden. 7 days post tumor cell inoculation mice were randomized into groups of 8 with a mean BLI of 27×10^6 photons/s. All agents were administered to mice bearing NCI-H1975-luc brain tumors on day 8. […] Body weight and MTV were measured on a 2× weekly schedule. Statistical analysis was calculated using the Mann-Whitney U test. Data are expressed as bioluminescent signal (photons/s).

T1 sequence (Q96SW2 whole entry partner): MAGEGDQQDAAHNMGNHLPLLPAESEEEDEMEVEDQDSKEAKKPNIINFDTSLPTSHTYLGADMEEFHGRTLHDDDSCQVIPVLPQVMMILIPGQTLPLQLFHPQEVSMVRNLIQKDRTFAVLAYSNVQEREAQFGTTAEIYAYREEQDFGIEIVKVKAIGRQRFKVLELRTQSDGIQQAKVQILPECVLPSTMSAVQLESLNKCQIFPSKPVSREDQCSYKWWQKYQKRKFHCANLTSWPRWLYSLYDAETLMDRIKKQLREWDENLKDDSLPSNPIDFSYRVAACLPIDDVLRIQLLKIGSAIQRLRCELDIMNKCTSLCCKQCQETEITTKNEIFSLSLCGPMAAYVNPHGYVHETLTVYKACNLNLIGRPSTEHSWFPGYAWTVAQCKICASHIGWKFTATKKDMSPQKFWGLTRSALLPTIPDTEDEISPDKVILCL
T1 sequence (Q16531 whole entry partner): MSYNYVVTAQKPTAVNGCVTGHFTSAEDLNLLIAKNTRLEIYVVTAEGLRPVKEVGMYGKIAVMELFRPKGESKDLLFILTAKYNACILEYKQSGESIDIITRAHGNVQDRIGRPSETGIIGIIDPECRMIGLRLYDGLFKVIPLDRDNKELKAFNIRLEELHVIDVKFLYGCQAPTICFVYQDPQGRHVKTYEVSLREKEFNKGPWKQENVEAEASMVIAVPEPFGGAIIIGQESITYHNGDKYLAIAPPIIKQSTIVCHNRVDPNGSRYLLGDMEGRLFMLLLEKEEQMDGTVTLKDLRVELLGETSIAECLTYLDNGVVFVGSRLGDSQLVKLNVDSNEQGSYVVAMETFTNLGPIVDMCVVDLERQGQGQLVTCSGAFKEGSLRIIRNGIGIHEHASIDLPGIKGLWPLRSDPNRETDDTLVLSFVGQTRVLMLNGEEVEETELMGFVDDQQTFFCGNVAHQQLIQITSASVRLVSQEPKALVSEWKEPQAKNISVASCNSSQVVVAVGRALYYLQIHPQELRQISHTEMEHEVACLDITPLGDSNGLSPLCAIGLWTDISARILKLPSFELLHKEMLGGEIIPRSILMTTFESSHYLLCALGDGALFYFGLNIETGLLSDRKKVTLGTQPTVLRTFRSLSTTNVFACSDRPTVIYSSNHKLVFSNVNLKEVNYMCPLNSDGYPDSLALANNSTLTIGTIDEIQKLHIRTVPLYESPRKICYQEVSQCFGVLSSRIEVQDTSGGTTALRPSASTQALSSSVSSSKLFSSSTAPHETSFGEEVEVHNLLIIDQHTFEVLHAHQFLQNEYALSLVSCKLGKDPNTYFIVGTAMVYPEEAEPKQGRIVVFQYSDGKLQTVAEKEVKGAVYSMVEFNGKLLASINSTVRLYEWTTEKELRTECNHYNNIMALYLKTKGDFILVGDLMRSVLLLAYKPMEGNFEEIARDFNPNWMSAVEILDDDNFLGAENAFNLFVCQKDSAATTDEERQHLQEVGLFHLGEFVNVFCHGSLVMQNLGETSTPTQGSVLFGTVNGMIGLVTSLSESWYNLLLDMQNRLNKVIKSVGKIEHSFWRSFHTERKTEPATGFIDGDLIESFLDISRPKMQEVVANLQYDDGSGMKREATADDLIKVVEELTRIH
T1 sequence (Q9UJQ4 whole entry): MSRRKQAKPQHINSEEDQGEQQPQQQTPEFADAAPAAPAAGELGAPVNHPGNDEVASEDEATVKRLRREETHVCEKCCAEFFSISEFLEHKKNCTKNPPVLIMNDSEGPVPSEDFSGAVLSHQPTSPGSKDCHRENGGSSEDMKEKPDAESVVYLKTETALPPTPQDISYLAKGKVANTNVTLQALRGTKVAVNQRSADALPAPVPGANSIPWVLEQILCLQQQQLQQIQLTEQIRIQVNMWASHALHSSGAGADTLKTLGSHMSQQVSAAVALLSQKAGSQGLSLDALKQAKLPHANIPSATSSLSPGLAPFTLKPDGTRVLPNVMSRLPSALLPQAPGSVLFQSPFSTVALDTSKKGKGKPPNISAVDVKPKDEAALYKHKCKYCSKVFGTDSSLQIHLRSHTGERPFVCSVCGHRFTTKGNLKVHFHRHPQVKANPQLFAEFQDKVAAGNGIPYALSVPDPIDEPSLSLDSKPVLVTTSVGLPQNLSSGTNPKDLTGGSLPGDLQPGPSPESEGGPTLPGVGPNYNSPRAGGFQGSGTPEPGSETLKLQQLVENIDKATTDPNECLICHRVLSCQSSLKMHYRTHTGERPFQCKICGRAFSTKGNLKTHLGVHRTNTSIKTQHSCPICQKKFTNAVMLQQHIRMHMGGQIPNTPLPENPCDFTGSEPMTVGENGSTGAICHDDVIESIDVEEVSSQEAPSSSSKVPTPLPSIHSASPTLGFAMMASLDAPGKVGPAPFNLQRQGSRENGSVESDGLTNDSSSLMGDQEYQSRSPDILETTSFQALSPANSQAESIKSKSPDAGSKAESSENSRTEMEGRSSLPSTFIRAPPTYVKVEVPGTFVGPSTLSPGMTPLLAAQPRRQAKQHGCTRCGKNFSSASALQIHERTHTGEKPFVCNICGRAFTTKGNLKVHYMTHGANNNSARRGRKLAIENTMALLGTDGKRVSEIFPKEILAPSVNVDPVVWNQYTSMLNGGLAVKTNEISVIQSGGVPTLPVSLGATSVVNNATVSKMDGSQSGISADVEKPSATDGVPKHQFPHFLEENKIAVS
Sequence of EGFR L858R (P00533 25-1210 L858R): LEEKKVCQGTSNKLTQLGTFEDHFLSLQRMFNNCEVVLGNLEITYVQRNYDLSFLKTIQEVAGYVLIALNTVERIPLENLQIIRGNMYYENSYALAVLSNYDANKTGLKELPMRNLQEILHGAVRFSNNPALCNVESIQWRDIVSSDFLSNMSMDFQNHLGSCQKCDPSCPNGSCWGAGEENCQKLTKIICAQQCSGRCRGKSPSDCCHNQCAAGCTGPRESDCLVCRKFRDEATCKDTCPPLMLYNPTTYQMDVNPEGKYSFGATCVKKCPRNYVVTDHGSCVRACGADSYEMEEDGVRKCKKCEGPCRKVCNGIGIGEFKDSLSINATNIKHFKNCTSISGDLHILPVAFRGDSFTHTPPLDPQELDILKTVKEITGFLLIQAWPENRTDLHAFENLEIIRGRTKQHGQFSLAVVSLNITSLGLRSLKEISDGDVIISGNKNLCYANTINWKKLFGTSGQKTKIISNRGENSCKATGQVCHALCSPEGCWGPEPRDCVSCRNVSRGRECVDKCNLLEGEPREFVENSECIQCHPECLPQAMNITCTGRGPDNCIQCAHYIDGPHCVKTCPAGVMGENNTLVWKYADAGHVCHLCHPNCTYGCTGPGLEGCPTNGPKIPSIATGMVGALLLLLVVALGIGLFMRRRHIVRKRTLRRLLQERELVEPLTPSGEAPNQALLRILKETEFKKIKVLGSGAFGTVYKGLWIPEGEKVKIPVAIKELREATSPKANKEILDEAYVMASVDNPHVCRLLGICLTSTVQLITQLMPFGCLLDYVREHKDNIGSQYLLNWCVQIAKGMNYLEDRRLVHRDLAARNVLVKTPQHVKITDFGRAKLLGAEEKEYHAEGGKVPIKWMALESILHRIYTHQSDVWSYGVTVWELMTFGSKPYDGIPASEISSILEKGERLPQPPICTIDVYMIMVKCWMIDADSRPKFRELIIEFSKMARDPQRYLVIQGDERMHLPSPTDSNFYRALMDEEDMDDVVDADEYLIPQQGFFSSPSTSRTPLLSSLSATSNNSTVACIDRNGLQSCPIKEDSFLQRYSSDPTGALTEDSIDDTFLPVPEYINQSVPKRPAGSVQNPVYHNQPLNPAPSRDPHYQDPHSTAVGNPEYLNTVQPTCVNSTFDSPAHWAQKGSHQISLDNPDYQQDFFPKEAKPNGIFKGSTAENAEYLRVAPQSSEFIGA

As for `O=C1CC[C@H](Nc2ccc(N3CCC(O)(CC(=O)N4CC5(C4)CN(c4ccc(-c6cc(F)c7c(c6)C(=O)N(C(C(=O)Nc6nccs6)c6ncn8c6CCC8)C7)cc4)C5)CC3)c(F)c2)C(=O)N1` (stereo partly drawn) [Compound 1, 2-(6,7-dihydro-5H-pyrrolo[1,2-c]imidazol-1-yl)-2-[6-[4-[2-[2-[1-[4-[[(3S)-2,6-dioxo-3-piperidyl]amino]-2-fluoro-phenyl]-4-hydroxy-4-piperidyl]acetyl]-2,6-diazaspiro[3.3]heptan-6-yl]phenyl]-4-fluoro-1-oxo-isoindolin-2-yl]-N-thiazol-2-yl-acetamide], the “efficacy on NCI-H1975 tumor volume” value in experiment [1] (20, 50 and 100 mg/kg/day PO BID, 14 days) is “reduced tumor volume”. For the same compound, the tumor regression entry in experiment [1] (NCI-H1975 mouse xenograft model, oral) is listed as “up to 90%”. For the same compound, the “SALL4 degradation (% SALL4 remaining)” value in experiment [2] is on record as “no effect”. The percent binding remaining at EGFR L858R is recorded as less than 50%. Besides, in experiment [3] (NCI-H1975-luc cells intracranial), the “Statistical Significance Compared to Vehicle” value was found to be 0.001. Moreover, the “efficacy on NCI-H1975-luc BLI (tumor burden)” value in experiment [3] (intracranial forebrain model, 100 mg/kg/day) is “reduced tumor volume; also recorded: tumor regression”.
